This is an account of results in article PMC6630718, “Discovery of Novel UV-Filters with Favorable Safety Profiles in the 5-Arylideneimidazolidine-2,4-dione Derivatives Group” (Molecules, 2019).

The structures appear in SMILES notation.

A short description of data set [1]: Ultraviolet spectroscopy in methanol solutions. The data set is classed as physicochemical. The following applies: for Absorption Range: scan range 290–400 nm. How it is done:
Spectra with a scan range of 290–400 nm were recorded in 50 or 25 μM methanol solutions, in 1 cm path length, 1.5 mL quartz cuvettes on a U-2800 double beam spectrophotometer (Hitachi, Tokyo, Japan) controlled by UV Solution version 2.2 software. The molar extinction coefficient at maximum absorption (εmax) of tested compounds was determined in methanol as the slope of the linear regression of absorbance vs. concentration of tested compound (from 10 to 50 μM or 2.5 to 30 μM).

A short description of data set [2]: In vitro photoprotection study of 2% (w/w) macrogol formulations on PMMA plates. The conditions noted are these: for UVA PF / UVA/UVB Ratio / λc (critical wavelength): 2% (w/w) macrogol formulation F1 (Triacetin 4.8%); for SPFin vitro: 2% (w/w) macrogol formulation F1 (Tween 20, PEG-400, PEG-1500, Triacetin 4.8%). The text has this:
The composition of formulations and concentration of tested compounds were based on their limited solubility. N-monosubstituted compounds 2a–2e were insoluble at desirable concentrations in the typical solvents used in cosmetic formulations such as alcohols, triacetin, surfactants, and co-surfactants. To dissolve compounds 2a and 2b before incorporation to the formulation DMSO: Tween 20 (1:9 w/w) was used, for less soluble 2c–2e it was necessary to use DMSO alone as solvent. […] Thus the detailed composition of the formulations is as follows: F1–Tween 20 43.2%, PEG-400 25%, PEG-1500 25%, Triacetin 4.8%, tested compound 2%; F2–Tween 20 43.2%, PEG-400 25%, PEG-1500 25%, DMSO 4.8%, tested compound 2%; F3–PEG-400 25%, PEG-1500 25%, DMSO 48%, tested compound 2%. Considering the disadvantages of currently reported macrogol formulations and the low concentration achieved for the tested compounds (2%), we plan to work on cosmetic emulsions containing the most promising derivatives at higher concentrations as well as required excipients including preservatives, antioxidants, etc. This research will be carried out in the near future.
Tested compounds and commercial UV filters as reference standards were incorporated to a neutral macrogel formulation in the concentration of 2%. Prior to the incorporation, compounds 3a–3e and 4f–4h and reference UV-filters were dissolved in a triacetin:Tween 20 (1:9) solvent system. For compounds 2a–2e it was necessary to use DMSO. The final composition of the macrogol formulations is presented in the photoprotective activity section.
In vitro photoprotection study was performed according to EN ISO 24443:2012 [71] with slight modifications. Formulation with tested compound (32.5 mg) was applied on a polymethylmethacrylate plate (PMMA) with the application area 25 cm^2 and 5 µm roughness value to simulate the skin surface (Schonberg GmbH, Hamburg, Germany). As a reference a PMMA plate treated with approximately 15 µL of glycerin was used. Measurements were carried out by reflectance spectrophotometry with SPF-290AS Analyser (Solar Light Company, Glenside, PA, USA) equipped with integrating sphere controlled by WinSPF version X.X. software. For each sample two plates were prepared, absorbance measures were performed on 6 different positions of the plate from 290 to 400 nm with 1 nm steps. The results were expressed as an average of data from 12 scans.

Data set [3] can be described thus: In vitro stability in mouse liver microsomes. The data set is classed as in vitro ADME. The conditions noted are these: mouse liver microsomes. How it is done:
Mouse liver microsomes (MLMs) were used to investigate the phase I metabolism of selected compounds (2c, 2d, 3b, 4g, 5a) and the reference substance BP-2. Samples composed of test compound (20 µM), MLMs (0.8 mg/mL) and potassium phosphate buffer (100 mM, pH 7.4) were preincubated prior to addition of NADPH-regenerating system. NADPH-regenerating system contained NADP, glucose-6-phosphate, glucose-6-phosphate dehydrogenase and potassium phosphate buffer (100 mM, pH 7.4). Control incubations were performed in the absence of the NADPH-regenerating system and in case of esters (2c, 2d, 3b and 4g) without the mouse liver microsomes solution to determine spontaneous hydrolysis. Incubations were conducted at 37 °C for at least 15 min up to 60 min. The reactions were stopped by the addition of 250 μL ice-cold methanol containing internal standard PTX (20 μM). The mixture was then centrifuged. Supernatant analysis was performed using UPLC/MS (Waters Corporation). The assays were repeated two times. The in vitro half times (t1/2) for test compounds were determined from the slope of the linear regression of ln % parent compound remaining versus incubation time. The calculated t1/2 was incorporated into the following equation to obtain intrinsic clearance: (Clint) = (volume of incubation [µL]/ protein in the incubation [mg]) × 0.693 / t1/2 [74].
(In general: Liver microsomes are vesicles of endoplasmic reticulum, rich in cytochrome P450 enzymes.)

A short description of data set [4]: Photostability in methanol solutions (solar light simulator). The class given is physicochemical. Set-up: λmax pre-irradiation: unit not given beside the values. The conditions noted are these: methanol solution; for % of initial AUC post-irradiation / λmax post-irradiation: 1h irradiation at 500 W/m2. The protocol:
(§1) The photostability evaluation of compounds was performed both in methanol solutions and in macrogol formulations. Irradiation of samples according to previous studies was conducted for 1 h at 500 W/m^2 (cumulative dose of ultraviolet radiation 218 kJ/m^2) with solar light simulator (Suntest CPS+, Atlas, Linsengericht, Germany) equipped with an optical filter cutting off wavelengths shorter than 290 nm and IR-block filter to neutralize thermal effects. The UV absorption spectrum of the samples were analysed post-irradiation and compared with pre-irradiation results. UPLC-MS/MS analyses were also performed.
(§2) Methanol solutions were tested at concentration 25 or 50 µM in quartz cuvettes with the PTFE stopper to prevent evaporation or leaking of the solvent. Macrogol formulations (2% w/w) were tested on PMMA plates (1.3 mg/cm^2). After post-irradiation measure of UV absorption, exposed and unexposed plates were washed with 5 mL of methanol, then mixtures were filtered and analysed by UPLC-MS/MS. All analyses were performed in duplicates.

Data set [5] in a line: Ames MPF Penta 2 microplate mutagenicity assay, TA100. The class given is cell-based. The following applies: Salmonella typhimurium; TA100, +S9, 1.25 µg/mL; read-out: FIB (fold induction over baseline), positive control. How it is done: (§3) The assay is a liquid microplate modification of the traditional Salmonella test. During the procedure, bacteria are exposed to different concentrations of a test compound for 90 min in a medium containing sufficient histidine (S. typhimurium) or tryptophan (E. coli) to support cell divisions. Then, the cultures are diluted in pH indicator medium lacking histidine or tryptophan and aliquoted into 48 wells of a 384-well plate. Within 48 hours, cells that have undergone reversion to amino acid prototrophy will grow into colonies. Bacterial metabolism reduces pH of the medium, changing the color of that well from purple to yellow (https://www.xenometrix.ch).
(§4) The following strains were used in the study: S. typhimurium TA98, TA100, TA1535, TA1537 and E. coli wp2 uvrA[pKM101]. TA100, TA1535 and E. coli strains are used for the detection of base substitution mutations, whereas TA98 and TA1537 are utilized for the detection of frameshift mutations. S. typhimurium strains have GC base pairs, whereas E. coli strain has AT base pair at their primary reversion site and detect certain oxidizing mutagens, cross-linking agents and hydrazines.
(§5) The test procedure provided by Xenometrix (https://www.xenometrix.ch) and described earlier was followed. Briefly, the bacterial strains were grown overnight in exposure medium and exposed to test compounds 4g and 3b in 24-well plates for 90 min at 37 °C with agitation in the absence (–S9) or presence (+S9) of 4.5% phenobarbital/ β-naphthoflavone-induced rat liver S9. Compounds 4g and 3b were dissolved in DMSO and tested at final concentrations of 0.1, 0.2 and 0.5 mM. After the preincubation, the cultures were diluted in the indicator medium and the contents of each 24-well culture were distributed into 48 wells on a 384-well plate and incubated further for 48 h at 37 °C without agitation. After the exposure, the number of wells containing bacteria was scored by eye for yellow wells. Positive and negative controls were included in the assay, and all doses were done in triplicate.
(§6) Pure DMSO was used as the negative control.
(§7) The fold increase of revertants relative to the solvent control was determined by dividing the mean number of positive wells at each dose by the solvent control at baseline. The solvent control at baseline was defined as the mean number of positive wells in the solvent control plus one standard deviation (SD). When an increase of more than 2-fold relative to the baseline at more than one dose with a dose–response is observed the sample is classified as positive, whereas when no response >2 times the baseline and no dose–response is stated the sample is negative.

Data set [6] can be described thus: Ames MPF Penta 2 microplate mutagenicity assay, TA98. The class given is cell-based. The following applies: Salmonella typhimurium, read-out: FIB (fold induction over baseline), positive control. How it is done: as §3, §4, §5, §6, §7
The next data set in a line: in vitro. The following applies: Salmonella typhimurium. How it is done: as §3, §4, §5, §6, §7
Data set [7] in a line: Ames MPF Penta 2 microplate mutagenicity assay, TA1535. The following applies: Salmonella typhimurium, FIB (fold induction over baseline), positive control, TA1535, –S9, 100 µg/mL. The protocol:
as §3, §4, §5, §6, §7

A short description of data set [8]: Photostability in macrogol formulations on PMMA plates (solar light simulator). The class given is physicochemical. The conditions noted are these: after 1 h irradiation at 500 W/m^2, formulation F1. How it is done:
After irradiation of thin layer of formulations applied on PMMA plates, their photoprotective parameters were determined and compared with the pre-irradiation results. The study gives an overview on functional photostability of the tested compounds. It is an important test, because the photostability of some compounds in low concentrated solutions may meaningfully differ from results obtained for higher concentrations used in sunscreen products. […] In the present study both UVB and UVA-absorbers were tested, so the changes in SPFin vitro, UVA PF and AUC after irradiation are taken into account as a measure of photostability.
as §1, §2

With `COc1ccc(C(=O)CC(=O)c2ccc(C(C)(C)C)cc2)cc1` [Avobenzone, butyl methoxy-dibenzoylmethane, reference compound], in data set [1], the εmax was determined as 36820 M⁻¹ cm⁻¹, the λmax was determined as 358 nm and the “Absorption Range” value was 290–393 nm. For the same compound, in [2], the “UVA PF” value came to 7.56 ± 0.19, the “UVA/UVB Ratio” value is given as 2.49 ± 0.03, the λc (critical wavelength) was 381 nm and the SPFin vitro is given as 2.23 ± 0.03.

The microsomal CLint is a measure of how fast metabolising enzymes remove a compound, apart from limits set by blood flow. `COc1ccc(/C=C2\NC(=O)NC2=O)cc1OC` [Compound 1e, (Z)-5-(3,4-Dimethoxybenzylidene)imidazolidine-2,4-dione]: the “Probable Transformation” value in data set [3] is listed as “O-dealkylation”. In [3] (mouse, pH 7.4, mouse liver microsomes 0.8 mg/mL, 20 µM compound, NADPH-regenerating system, 37 °C, read-out: t ½), the half-life at 20 µM was determined as 1.02 h. The microsomal CLint at 20 µM in data set [3] (mouse, pH 7.4, mouse liver microsomes, calculated from t1/2) is 14 µL/min/mg. For the same compound, in [1], the εmax is 28440 M⁻¹ cm⁻¹, the λmax was found to be 341 nm and the “Absorption Range” value is 290–384 nm. For the same compound, in [4], the λmax pre-irradiation is recorded as 341, the “% of initial AUC post-irradiation” value is listed as 95.38% and the λmax post-irradiation was 346.

For the compound `Nc1ccc2cc3ccccc3cc2c1` [Compound 2-AA, 2-aminoanthracene, reference compound], the fold induction at 90 min, 1.25 µg/mL in [5] was 3.1. For the same compound, the fold induction at 90 min, 0.5 µg/mL in data set [6] (TA98, +S9, 0.5 µg/mL) was 12.6.

In the case of `O=[N+]([O-])c1ccc2c(c1)Cc1ccccc1-2` [Compound 2-NF, 2-nitrofluorene, reference compound], the fold induction at 90 min, 2 µg/mL in [6] (S. typhimurium TA98 without S9 (–S9), TA98, –S9, 2 µg/mL) was found to be 25.3.

Take `Nc1c2ccccc2nc2ccccc12` [Compound 9-AAc, 9-aminoacridine, reference compound]: the fold induction at 90 min, 15 µg/mL in the data set “in vitro” came out at 48.

`NNc1ccn([C@@H]2O[C@H](CO)[C@@H](O)[C@H]2O)c(=O)n1` [Compound N4-ACT, N4-aminocytidine, reference compound] returned a fold induction at 90 min, 100 µg/mL in [7] of 40.

For `CCCCC(CC)COC(=O)C=Cc1ccc(OC)cc1` (stereo not drawn) [EHMC, ethylhexyl methoxycinnamate, reference compound], in [1], the εmax stood at 22990 M⁻¹ cm⁻¹, the λmax worked out at 309 nm and the “Absorption Range” value is given as 290–339 nm. Moreover, in data set [2], the “UVA PF” value is 1.34 ± 0.05, the “UVA/UVB Ratio” value is recorded as 0.05 ± 0.01, the λc (critical wavelength) amounted to 321 nm and the SPFin vitro turned out to be 4.96 ± 0.33. For the same compound, in [8], the “% of Initial AUC” value is on record as 78.45%, the “% of Initial SPFin vitro” value is 80.83% and the “% of Initial UVA PF” value is listed as 88.76%. Further, in data set [4], the “decrease of AUC after irradiation” value is 36.7%, the λmax pre-irradiation is reported as 309, the “% of initial AUC post-irradiation” value is 63.26% and the λmax post-irradiation is given as 307.

Take `CCCCC(CC)COC(=O)C(C#N)=C(c1ccccc1)c1ccccc1` (stereo not drawn) [Octocrylene, octocrylene, reference compound]: in data set [1], the εmax was determined as 13650 M⁻¹ cm⁻¹, the λmax stood at 302 nm and the “Absorption Range” value was 290–349 nm. Moreover, in [2], the “UVA PF” value was found to be 1.20 ± 0.03, the “UVA/UVB Ratio” value was determined as 0.12 ± 0.01, the λc (critical wavelength) amounted to 327 nm and the SPFin vitro is given as 2.87 ± 0.16.
